Measured values as given in EP0137439A2, “Antitumour agent” (Henkel Kommanditgesellschaft auf Aktien, priority 1983, dated 1985).

Tested on: Tumorart P 388 (Leukämie)
Experiment: P 388 leukemia survival test in mice, NCI protocol 1200
Assay type: in vivo, Mäusen
Conditions: P 388 i.p. in mice; for T/C-Wert: aqueous 1% injection solution, rate of survival prolongation vs untreated animals; for 30 Tage überlebende Tiere (von 6): animals out of 6 alive at 30 days
Text: Epoxid-0: gef. 18,94 %, ber. 18,82 % Die nachfolgenden Versuche wurden durchgeführt nach Testvorschriften des National Cancer Institute Bethesda, Maryland 200014, veröffentlicht in "Cancer Chemotherapy Reports" Part. 3, September 1972, Vol. 3, Nr. 2. Als Wirksubstanz wurde 1,2-Diglycidyl-4-diglycidylamino- urazol des vorstehenden Beispiels 1 verwendet. Die Substanz wurde als wäßrige, 1%ige In jektions lösung unmittelbar vor der Applikation frisch hergestellt.
Bei Mäusen wurde gemäß Protokoll 1200 (S. 91c) die Tumorart P 388 (Leukämie) i.p. mit […] gesetzt. Die mittlere Uberlebensdauer der unbehandelten Tiere wird bestimmt.
In weiteren Versuchsgruppen wird entsprechend vorbehandelten Tieren der Wirkstoff applizi-ert. Es wird eine signifikante Verlängerung der Lebensdauer der behandelten Testtiere gegenüber der mittleren Überlebensdauer der nicht mit dem Wirkstoff behandelten Tiere erzielt. Die Verlängerungsrate T/C in Abhängigkeit von der Dosierung des Wirkstoffes ist in der folgenden Tabelle zusammengestellt: […]

Compound	T/C-Wert (dose 25 mg/kg)	30 Tage überlebende Tiere (von 6) (dose 50 mg/kg)	T/C-Wert (dose 50 mg/kg)	30 Tage überlebende Tiere (von 6) (dose 6,25 mg/kg)	T/C-Wert (dose 6,25 mg/kg)	T/C-Wert (dose 12,5 mg/kg)	30 Tage überlebende Tiere (von 6) (dose 25 mg/kg)
O=c1n(N(CC2CO2)CC2CO2)c(=O)n(CC2CO2)n1CC1CO1 (stereo not drawn) [1,2-Diglycidyl-4-diglycidyl-aminourazol, 1,2-Diglycidyl-4-diglycidylamino-urazol]	155	6	>300	3	291	142	
O=c1n(CC2CO2)c(=O)n(CC2CO2)n1CC1CO1 (stereo not drawn) [Triglycidylurazol]	260	6	300		180	230	4
